Measured values taken from patent US6780863B1, “Bis-basic compounds with tryptase-inhibitory activity” (Boehringer Ingelheim Pharma GmbH & Co. KG, priority 1999, dated 2004).

Molecular target: T1, rh beta tryptase (Homo sapiens, UniProt Q15661)
T1 construct: purchased Promega
Test: tryptase inhibition test (cleavage of N-p-tosyl-Gly-Pro-Lys-para-nitroaniline, p-nitroaniline measured at 405 nm)
Type: biochemical
Settings: Tris HCl buffer pH 7.4 with calcium and heparin; substrate 0.6 mM; 5 min pre-incubation, 5 min incubation, 37° C.
Procedure: The compounds according to the invention are characterised by their tryptase-inhibiting activity. This ability to inhibit tryptase was investigated using the test described below.
The measurement is carried out in Tris HCl buffer (100 mM), which additionally contains calcium (5 mM) and heparin (100 mg/ml), at pH 7.4. The standard used is rh beta tryptase which may be obtained commercially from Promega, for example. The substrate used is N-p-tosyl—Gly-Pro-Lys-para-nitroaniline in a concentration of 0.6 mM. The substrate is digested with tryptase to form p-nitroaniline which can be measured at 405 nm. Usually, an incubation period of 5 minutes and an incubation temperature of 37° C. are chosen. The enzyme activity used is 0.91 U/ml. The measurements are carried out in an Autoanalyser (Cobas Bio) made by Hofmann LaRoche. The potential inhibitory substances are used in concentrations of 10 μM in the screening, the inhibition of the tryptase being given in percent. The IC50 (concentration at which 50% of the enzyme activity is inhibited) is determined at over 70% inhibition. After 5 minutes' pre-incubation of the potential inhibitory substances, the substrate is added to start the reaction, the formation of p-nitroaniline being taken as a measurement of the enzyme activity after 5 minutes, after testing the linearity.

T1 sequence (Q15661 31-275): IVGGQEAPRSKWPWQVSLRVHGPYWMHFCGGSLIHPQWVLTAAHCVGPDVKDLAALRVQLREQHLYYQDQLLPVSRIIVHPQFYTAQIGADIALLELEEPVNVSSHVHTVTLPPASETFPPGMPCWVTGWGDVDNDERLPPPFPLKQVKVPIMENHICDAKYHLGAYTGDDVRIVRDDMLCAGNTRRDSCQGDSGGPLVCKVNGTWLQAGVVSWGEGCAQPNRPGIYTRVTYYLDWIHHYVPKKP

Row | IC50 | Compound
1 | 4.3 nM | NCc1ccc(OCc2cccc(CNCCCCCNCc3cccc(COc4ccc(CN)cc4)c3)c2)cc1 [Example 7]
2 | 35 nM | NCc1ccc(OCc2cccc(CNCCc3cccc(NCc4cccc(COc5ccc(CN)cc5)c4)c3)c2)cc1 [Example 10]
3 | 4 nM | NCc1ccc(OCc2cccc(CNCC3CCC(CNCc4cccc(COc5ccc(CN)cc5)c4)CC3)c2)cc1 (centres unmarked) [Example 11]
4 | 13 nM | CC(C)(CCC(C)(C)NCc1cccc(COc2ccc(CN)cc2)c1)NCc1cccc(COc2ccc(CN)cc2)c1 [Example 14]
5 | 23 nM | NCc1ccc(OCc2cccc(CNCc3cccc(CNCc4cccc(COc5ccc(CN)cc5)c4)c3)c2)cc1 [Example 15]
6 | 12 nM | NCc1ccc(OCc2cccc(CNCc3ccc(CNCc4cccc(COc5ccc(CN)cc5)c4)cc3)c2)cc1 [Example 16]
7 | 1.4 nM | N=C(N)c1ccc(OCc2cccc(CNCCCCCNCc3cccc(COc4ccc(C(=N)N)cc4)c3)c2)cc1 [Example 17]
8 | 10.7 nM | CC1(NCc2cccc(COc3ccc(CN)cc3)c2)CCC(C(C)(C)NCc2cccc(COc3ccc(CN)cc3)c2)CC1 (centres unmarked) [Example 18]
9 | 10 nM | NCc1ccc(OCc2cccc(CNC3CCC(CC4CCC(NCc5cccc(COc6ccc(CN)cc6)c5)CC4)CC3)c2)cc1 (centres unmarked) [Example 19]
10 | 7.1 nM | NCc1ccc(OCc2cccc(CNCC3CCCC(CNCc4cccc(COc5ccc(CN)cc5)c4)C3)c2)cc1 (centres unmarked) [Example 20]
11 | 1.1 nM | N=C(N)c1ccc(OCc2cccc(CNCCCCCCCNCc3cccc(COc4ccc(C(=N)N)cc4)c3)c2)cc1 [Example 23]
12 | 3.1 nM | CN(CCCCCCN(C)Cc1cccc(COc2ccc(C(=N)N)cc2)c1)Cc1cccc(COc2ccc(C(=N)N)cc2)c1 [Example 24]
13 | 1.2 nM | N=C(N)c1ccc(OCc2cccc(CNCCCCCCNCc3cccc(COc4ccc(C(=N)N)cc4)c3)c2)cc1 [Example 25]
14 | 0.8 nM | N=C(N)c1ccc(OCc2cccc(CNCC3CCC(CNCc4cccc(COc5ccc(C(=N)N)cc5)c4)CC3)c2)cc1 (centres unmarked) [Example 26]
15 | 1.7 nM | CC(C)(CCC(C)(C)NCc1cccc(COc2ccc(C(=N)N)cc2)c1)NCc1cccc(COc2ccc(C(=N)N)cc2)c1 [Example 27]
16 | 5.3 nM | N=C(N)c1ccc(OCc2cccc(CNCc3cccc(CNCc4cccc(COc5ccc(C(=N)N)cc5)c4)c3)c2)cc1 [Example 28]

Row | IC50 | Compound
17 | 1.7 nM | N=C(N)c1ccc(OCc2cccc(CNCc3ccc(CNCc4cccc(COc5ccc(C(=N)N)cc5)c4)cc3)c2)cc1 [Example 29]
18 | 6.8 nM | CCCCN(CCCCCCN(CCCC)Cc1cccc(COc2ccc(C(=N)N)cc2)c1)Cc1cccc(COc2ccc(C(=N)N)cc2)c1 [Example 30]
19 | 13 nM | CN(CCCCCCN(C)Cc1cccc(COc2ccc(CN)cc2)c1)Cc1cccc(COc2ccc(CN)cc2)c1 [Example 31]
20 | 32.4 nM | N=C(N)c1ccc(OCc2cccc(CNCCCCC(NCc3cccc(COc4ccc(C(=N)N)cc4)c3)C(=O)O)c2)cc1 (centres unmarked) [Example 32]
21 | 2.5 nM | CC(C)(CCCCC(C)(C)NCc1cccc(COc2ccc(C(=N)N)cc2)c1)NCc1cccc(COc2ccc(C(=N)N)cc2)c1 [Example 33]
22 | 0.8 nM | N=C(N)c1ccc(OCc2cccc(CN3CCC(C4CCN(Cc5cccc(COc6ccc(C(=N)N)cc6)c5)CC4)CC3)c2)cc1 [Example 34]
23 | 31.6 nM | CN(Cc1ccc(CN(C)Cc2cccc(COc3ccc(CCN)cc3)c2)cc1)Cc1cccc(COc2ccc(CCN)cc2)c1 [Example 35]
24 | 12 nM | N=C(N)c1ccc(OCc2cccc(CNCCOCCNCc3cccc(COc4ccc(C(=N)N)cc4)c3)c2)cc1 [Example 39]
25 | 5 nM | CC1(NCc2cccc(COc3ccc(C(=N)N)cc3)c2)CCC(C(C)(C)NCc2cccc(COc3ccc(C(=N)N)cc3)c2)CC1 (centres unmarked) [Example 40]
26 | 30.9 nM | NCCc1ccc(OCc2cccc(CN3CCC(C4CCN(Cc5cccc(COc6ccc(CCN)cc6)c5)CC4)CC3)c2)cc1 [Example 42]
27 | 19 nM | N=C(N)c1ccc(OCc2cccc(COCc3ccc(COCc4cccc(COc5ccc(C(=N)N)cc5)c4)cc3)c2)cc1 [Example 56]
28 | 41 nM | N=C(N)c1ccc(OCc2cccc(CN(Cc3ccc(CN(Cc4cccc(COc5ccc(C(=N)N)cc5)c4)C4CC4)cc3)C3CC3)c2)cc1 [Example 62]
29 | 0.74 nM | N=C(N)c1ccc(OCc2ccc(CNCCCCCCNCc3ccc(COc4ccc(C(=N)N)cc4)cc3)cc2)cc1 [Example 63]
30 | 1.1 nM | N=C(N)c1ccc(OCc2ccc(CN3CCC(C4CCN(Cc5ccc(COc6ccc(C(=N)N)cc6)cc5)CC4)CC3)cc2)cc1 [Example 64]
31 | 0.59 nM | N=C(N)c1ccc(OCc2ccc(CNCc3ccc(CNCc4ccc(COc5ccc(C(=N)N)cc5)cc4)cc3)cc2)cc1 [Example 65]
32 | 2.5 nM | NCc1ccc(OCc2cccc(CN3CCC(C4CCN(Cc5cccc(COc6ccc(CN)cc6)c5)CC4)CC3)c2)cc1 [Example 68]
